Measurements reported in US12655116B2, “Substituted isophthalic acid diamides” (Bayer Aktiengesellschaft, priority 2020, dated 2026).

Assays:
ABUTH [1] = assay: Pre-emergence herbicidal action against ABUTH; type: in vivo, Abutilon theophrasti
Outline: (§1)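 Greenhouse pots of sandy loam held seeds covered with soil, onto which the compound was applied before emergence. An aqueous suspension or emulsion of WP or EC was used at 600 to 800 l/ha with 0.2% wetting agent. Percent damage was judged visually at 3 weeks.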

ALOMY [2] = assay: Pre-emergence herbicidal action against ALOMY; type: in vivo, Alopecurus myosuroides; conditions: pre-emergence
Outline: as §1

AMARE [3] = assay: Pre-emergence herbicidal action against AMARE; type: in vivo, Amaranthus retroflexus
Outline: as §1

AVEFA = assay: Pre-emergence herbicidal action against AVEFA; type: in vivo, Avena fatua; conditions: 80 g/ha, pre-emergence
Outline: as §1

ECHCG [4] = assay: Pre-emergence herbicidal action against ECHCG; type: in vivo, Echinochloa crus-galli; conditions: 80 g/ha
Outline: as §1

MATIN [5] = assay: Pre-emergence herbicidal action against MATIN; type: in vivo, Matricaria inodora
Outline: as §1

PHBPU [6] = assay: Pre-emergence herbicidal action against PHBPU; type: in vivo, Pharbitis purpurea; conditions: dosage 80 g/ha
Outline: as §1

POLCO = assay: Pre-emergence herbicidal action against POLCO; type: in vivo, Polygonum convolvulus; conditions: dosage 80 g/ha
Outline: as §1

SETVI [7] = assay: Pre-emergence herbicidal action against SETVI; type: in vivo, Setaria viridis
Outline: as §1

VERPE [8] = assay: Pre-emergence herbicidal action against VERPE; type: in vivo, Veronica persica
Outline: as §1

VIOTR [9] = assay: Pre-emergence herbicidal action against VIOTR; type: in vivo, Viola tricolor
Outline: as §1

DIGSA [10] = assay: Pre-emergence herbicidal action against DIGSA; type: in vivo, Digitaria sanguinalis
Outline: as §1

ABUTH [11] = assay: Post-emergence herbicidal action against ABUTH; type: in vivo, Abutilon theophrasti; conditions: dosage 20 g/ha, visual assessment about 3 weeks after treatment vs untreated controls
Outline: (§2)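 A WP or EC formulation diluted in water with 0.2% wetting agent was sprayed at 600 to 800 l/ha onto one-leaf-stage plants grown in sandy loam. About 3 weeks later, action was rated visually in percent, 100% being dead plants.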

ALOMY [12] = assay: Post-emergence herbicidal action against ALOMY; type: in vivo, Alopecurus myosuroides; conditions: dosage 20 g/ha, visual assessment about 3 weeks after treatment vs untreated controls
Outline: as §2

AMARE [13] = assay: Post-emergence herbicidal action against AMARE; type: in vivo, Amaranthus retroflexus; conditions: 20 g/ha, visual assessment about 3 weeks after treatment, 100% = plants have died, 0% = like control plants
Outline: as §2

ECHCG [14] = assay: Post-emergence herbicidal action against ECHCG; type: in vivo, Echinochloa crus-galli; conditions: dosage 20 g/ha
Outline: as §2

MATIN [15] = assay: Post-emergence herbicidal action against MATIN; type: in vivo, Matricaria inodora
Outline: as §2

PHBPU [16] = assay: Post-emergence herbicidal action against PHBPU; type: in vivo, Pharbitis purpurea; conditions: dosage 20 g/ha
Outline: as §2

VERPE [17] = assay: Post-emergence herbicidal action against VERPE; type: in vivo, Veronica persica
Outline: as §2

DIGSA [18] = assay: Post-emergence herbicidal action against DIGSA; type: in vivo, Digitaria sanguinalis
Outline: as §2

SETVI [19] = assay: Post-emergence herbicidal action against SETVI; type: in vivo, Setaria viridis; conditions: Setaria viridis, 504 h
Outline: as §2

VIOTR [20] = assay: Post-emergence herbicidal action against VIOTR; type: in vivo, Viola tricolor; conditions: Viola tricolor, 504 h
Outline: as §2

[21] = 80 g/ha, scored visually after 3 weeks vs untreated controls (100% = plants have died, 0% = like control plants)
[22] = Tripleurospermum inodorum, 504 h, dosage 20 g/ha

Which results are given for `CC(NC(=O)c1c(C(F)F)ccc(C(=O)Nc2nnnn2C)c1Br)C1CC1` (stereo not drawn) [Example 1-340]?
Pre-emergence action against ABUTH (herbicidal activity) (ABUTH [1]; [21]): 100%; Pre-emergence action against ABUTH (herbicidal activity in percent) (ABUTH [1]; dosage 20 g/ha, scored visually after 3 weeks vs untreated controls, 100% = plants have died, 0% = like control plants): 100%; Pre-emergence action against ALOMY (herbicidal activity) (ALOMY [2]; [21]): 90%; Pre-emergence action against AMARE in % (AMARE [3]; 20 g/ha, scored visually after 3 weeks vs untreated controls, 100% = plants have died, 0% = like control plants): 100%; Pre-emergence action against AMARE in % (AMARE [3]; [21]): 100%; Pre-emergence action against AVEFA in % (AVEFA): 80%; Pre-emergence action against ECHCG in % (ECHCG [4]): 100%; Pre-emergence action against MATIN in % (MATIN [5]; dosage 20 g/ha): 100%; Pre-emergence action against MATIN in % (MATIN [5]; dosage 80 g/ha): 100%; Pre-emergence action against PHBPU in % (PHBPU [6]): 90%; Pre-emergence action against POLCO in % (POLCO): 90%; Pre-emergence action against SETVI in % (SETVI [7]; dosage 20 g/ha): 90%; Pre-emergence action against SETVI in % (SETVI [7]; dosage 80 g/ha): 100%; Pre-emergence action against VERPE in % (VERPE [8]; dosage 20 g/ha): 100%; Pre-emergence action against VERPE in % (VERPE [8]; dosage 80 g/ha): 100%; Pre-emergence action against VIOTR in % (VIOTR [9]; dosage 20 g/ha): 100%; Pre-emergence action against VIOTR in % (VIOTR [9]; dosage 80 g/ha): 100%; Pre-emergence action against DIGSA in % (DIGSA [10]; dosage 20 g/ha): 100%; Pre-emergence action against DIGSA in % (DIGSA [10]; dosage 80 g/ha): 100%; Post-emergence action against ABUTH in % (ABUTH [11]): 80%; Post-emergence action against ALOMY in % (ALOMY [12]): 80%; Post-emergence action at 20 g/ha against AMARE in % (AMARE [13]): 90%; Post-emergence action against ECHCG in % (ECHCG [14]): 90%; Post-emergence action against MATIN in % (MATIN [15]; dosage 20 g/ha): 80%; Post-emergence action against PHBPU in % (PHBPU [16]): 90%; Post-emergence action against VERPE in % (VERPE [17]; 20 g/ha): 80%; Post-emergence action against DIGSA (DIGSA [18]; 20 g/ha): 90%

With `CCn1nnnc1NC(=O)c1ccc(C(F)(F)F)c(C(=O)NC)c1Br` [Example 2-207] as the molecule, how does the pest or weed control at 80 g/ha (ABUTH [1]; Abutilon theophrasti, 504 h, 80 g/ha, scored visually after 3 weeks vs untreated controls (100% = plants have died, 0% = like control plants)) read?
Its pest or weed control at 80 g/ha is 100%.

And the pest or weed control at 20 g/ha (ABUTH [1]; Abutilon theophrasti, 504 h, dosage 20 g/ha, scored visually after 3 weeks vs untreated controls, 100% = plants have died, 0% = like control plants, read-out: Pre-emergence action against ABUTH (herbicidal activity in percent))?
The pest or weed control at 20 g/ha was 100%.

What about the pest or weed control at 80 g/ha (ALOMY [2]; Alopecurus myosuroides, 504 h, 80 g/ha, scored visually after 3 weeks vs untreated controls (100% = plants have died, 0% = like control plants)) of the same molecule?
The pest or weed control at 80 g/ha was 90%.

What about the pest or weed control at 20 g/ha (ALOMY [2]; Alopecurus myosuroides, 504 h, 20 g/ha, scored visually after 3 weeks, 100% = plants have died, 0% = like control plants) of the same molecule?
The pest or weed control at 20 g/ha was 80%.

What about the pest or weed control at 20 g/ha (AMARE [3]; Amaranthus retroflexus, 504 h, 20 g/ha, scored visually after 3 weeks vs untreated controls, 100% = plants have died, 0% = like control plants) of the same molecule?
The pest or weed control at 20 g/ha was 100%.

And the pest or weed control at 80 g/ha (AMARE [3]; Amaranthus retroflexus, 504 h, 80 g/ha, scored visually after 3 weeks vs untreated controls, 100% = plants have died, 0% = like control plants)?
The pest or weed control at 80 g/ha was 100%.

And the pest or weed control at 80 g/ha (AVEFA; Avena fatua, 504 h)?
The pest or weed control at 80 g/ha was 90%.

And the pest or weed control at 80 g/ha (ECHCG [4]; Echinochloa crus-galli, 504 h)?
The pest or weed control at 80 g/ha was 100%.

And the pest or weed control at 20 g/ha (MATIN [5]; [22])?
Its pest or weed control at 20 g/ha is 90%.

And the pest or weed control at 80 g/ha (MATIN [5]; Tripleurospermum inodorum, 504 h, dosage 80 g/ha)?
The pest or weed control at 80 g/ha was 100%.

And the pest or weed control at 80 g/ha (PHBPU [6]; Ipomoea purpurea, 504 h)?
Its pest or weed control at 80 g/ha is 80%.

And the pest or weed control at 80 g/ha (POLCO; Fallopia convolvulus, 504 h)?
Its pest or weed control at 80 g/ha is 90%.

What about the pest or weed control at 20 g/ha (SETVI [7]; Setaria viridis, 504 h, dosage 20 g/ha) of the same molecule?
The pest or weed control at 20 g/ha was 100%.

What about the pest or weed control at 80 g/ha (SETVI [7]; Setaria viridis, 504 h, dosage 80 g/ha) of the same molecule?
The pest or weed control at 80 g/ha was 100%.

And the pest or weed control at 80 g/ha (VERPE [8]; Veronica persica, 504 h, dosage 80 g/ha)?
The pest or weed control at 80 g/ha was 90%.

What about the pest or weed control at 20 g/ha (VIOTR [9]; Viola tricolor, 504 h, dosage 20 g/ha) of the same molecule?
The pest or weed control at 20 g/ha was 90%.

What about the pest or weed control at 80 g/ha (VIOTR [9]; Viola tricolor, 504 h, dosage 80 g/ha) of the same molecule?
Its pest or weed control at 80 g/ha is 100%.

And the pest or weed control at 20 g/ha (DIGSA [10]; Digitaria sanguinalis, 504 h, dosage 20 g/ha)?
Its pest or weed control at 20 g/ha is 90%.

And the pest or weed control at 80 g/ha (DIGSA [10]; Digitaria sanguinalis, 504 h, dosage 80 g/ha)?
The pest or weed control at 80 g/ha was 100%.

What about the pest or weed control at 20 g/ha (ABUTH [11]; Abutilon theophrasti, 504 h) of the same molecule?
The pest or weed control at 20 g/ha was 90%.

What about the pest or weed control at 20 g/ha (ALOMY [12]; Alopecurus myosuroides, 504 h) of the same molecule?
The pest or weed control at 20 g/ha was 90%.

And the pest or weed control at 20 g/ha (AMARE [13]; Amaranthus retroflexus, 504 h)?
Its pest or weed control at 20 g/ha is 100%.

What about the pest or weed control at 5 g/ha (MATIN [15]; Tripleurospermum inodorum, 504 h, dosage 5 g/ha) of the same molecule?
The pest or weed control at 5 g/ha was 80%.

What about the pest or weed control at 20 g/ha (MATIN [15]; [22]) of the same molecule?
Its pest or weed control at 20 g/ha is 90%.

What about the pest or weed control at 20 g/ha (PHBPU [16]; Ipomoea purpurea, 504 h) of the same molecule?
Its pest or weed control at 20 g/ha is 80%.

What about the pest or weed control at 5 g/ha (SETVI [19]; dosage 5 g/ha) of the same molecule?
The pest or weed control at 5 g/ha was 90%.

And the pest or weed control at 20 g/ha (SETVI [19]; dosage 20 g/ha)?
The pest or weed control at 20 g/ha was 100%.

What about the pest or weed control at 5 g/ha (VERPE [17]; Veronica persica, 504 h, 5 g/ha) of the same molecule?
Its pest or weed control at 5 g/ha is 80%.

And the pest or weed control at 20 g/ha (VERPE [17]; Veronica persica, 504 h, 20 g/ha)?
The pest or weed control at 20 g/ha was 90%.

And the pest or weed control at 5 g/ha (VIOTR [20]; 5 g/ha)?
Its pest or weed control at 5 g/ha is 100%.

What about the pest or weed control at 20 g/ha (VIOTR [20]; 20 g/ha) of the same molecule?
The pest or weed control at 20 g/ha was 100%.

What about the pest or weed control at 5 g/ha (DIGSA [18]; Digitaria sanguinalis, 504 h, 5 g/ha) of the same molecule?
Its pest or weed control at 5 g/ha is 80%.

What about the pest or weed control at 20 g/ha (DIGSA [18]; Digitaria sanguinalis, 504 h, 20 g/ha) of the same molecule?
Its pest or weed control at 20 g/ha is 100%.
